“And” between values parts separate entries of the source, which are not always exact repeats. Equal entries are not always repeated.
Key:
Assay type in all cases: physicochemical
[1] = Fluorescence response to trifluoroacetic acid / DBU in acetonitrile
Description: A 30 μM solution of Compound 6 in acetonitrile was prepared by adding 99 μL of a stock solution of 3.04 mM Compound 6 in methanol to 10 mL of acetonitrile. An initial fluorescence emission spectrum of the solution was obtained and is illustrated by curve (i) in FIG. 1A.
A series of approximately 13.8 μL aliquots of trifluoroacetic acid (TFA) were then added to the 30 μM solution of Compound 6 until a total concentration of 60.0 mM of TFA was present in the solution. (The total amount of TFA present in the solution corresponded to 2000 equivalents of acid per equivalent of Compound 6.) The fluorescence emission spectrum of the resulting solution was obtained and is illustrated by curve (ii) in FIG. 1A.
A base, i.e., 1,8-diazabicyclo[5.4.0]undec-7-ene (DBU), was then added to the solution to neutralize the acid until a concentration of 90 mM DBU was obtained. The fluorescence emission spectrum of the resulting solution was obtained and is illustrated by curve (iii) in FIG. 1A. The fluorescence emission intensity at λem,max=565 nm increased as the amount of base present in the system increased and the fluorescence emission intensity at λem,max=405 nm decreased as the amount of base present in the system increased, which reflected Compound 6's ratiometric response to the changing base concentration in acetonitrile.
A 30 μM solution of Compound 7 in acetonitrile was prepared by adding 84 μL of a stock solution of 3.58 mM Compound 7 in methanol to 10 mL of acetonitrile. The emission spectrum of the solution was then obtained and is illustrated by curve (i) in FIG. 1B.
A series of approximately 13.8 μL aliquots of TFA were then added to the 30 μM solution of Compound 7 until a total concentration of 60.0 mM TFA was present in the solution (which corresponded to 2000 equivalents of acid per equivalent of Compound 7). The fluorescence emission spectrum of the solution was obtained and is illustrated by curve (ii) in FIG. 1B.
After the 60 mM TFA concentration was achieved, DBU was gradually added to the solution until a total concentration of 90 mM DBU was present in the solution. The fluorescence spectrum of the solution was obtained and is illustrated by curve (iii) in FIG. 1B.
An aliquot of 50 μL of trifluoroacetic acid was then added to the system, and the fluorescence emission spectrum was obtained and is illustrated by the curved line with a peak at 360 nm in FIG. 6A.
Compound 10 was placed in neat acetonitrile and its emission spectrum was monitored as trifluoroacetic acid was added to the acetonitrile in incremental amounts to achieve a solution that included an acid concentration ranging from 0 to 0.2 M. After each acid addition the sample was excited with radiation of a wavelength 340 nm, and its fluorescence emission spectrum was monitored. The results are illustrated in FIG. 7A.
The solution of Compound 10 in acetonitrile was titrated with trifluoroacetic acid (TFA). […] The first stage, which occurred with the addition of the initial aliquots of TFA, was a slight increase intensity at 580 nm, as illustrated in FIG. 7A. As more TFA was added to the system, a second transition occurred in which the emission at 580 nm began to decrease and as the emission at 400 nm began to increase, as illustrated in FIG. 7B. A plot of the emission intensity at 580 nm versus pH and at 400 nm versus pH is illustrated in FIG. 7C.
Compounds 10, 11, and 12 were then each individually added, at a concentration of 30 μM, to acetonitrile and the emission spectrum of each was monitored. The compounds emitted at 600 nm with an intensity of about 7.57×10^5 arbitrary units (a.u.) in neat acetonitrile. […] FIG. 8B illustrates the emission properties of Compound 12.

[2] = Fluorescence response to pH in buffered water; conditions: buffered water, 298 K, pH from 7.5 to 2.5
Description: Stock solutions of each compound (having a concentration of from 1-5 mM) were prepared by dissolving the corresponding salts of the compounds in methanol or 1V, N-dimethylformamide, and then diluting the same with acetonitrile or buffered water having a pH of from 2.5 to 7.5 derived from 0.2 M […] and 0.1 M citric acid, to achieve a sample solution having a compound concentration of 30.0 μM.
The emission spectrum for each sample was obtained. The results are illustrated by the plot in FIG. 2A.
The emission spectrum for each sample was obtained. […] The results are illustrated in the plot of FIG. 2B.
The fluorescence emission spectrum of Compound 8 in water having a pH of 2.5 was also obtained and is illustrated by the curved line with a peak at 360 nm in FIG. 5B.
Compounds 10, 11, and 12 were each individually added, at a concentration of 30 μM, to water having a pH=7.5 and the emission spectra of each were obtained. […] As the pH was decreased from 7.5 to 2.5 in 0.5 pH unit increments, fluorescence emission at 600 nm remained relatively nonexistent and the intensity of the fluorescence emission at 400 nm increased in correlation to the decrease in pH. FIG. 8A illustrates the emission properties of Compound 12.

[3] = Ultraviolet-visible light spectrum (maximum absorbance wavelength)
Description: Method for Obtaining an Ultraviolet-Visible Light Spectrum
Ultraviolet-visible (UV-Vis) Light spectra are obtained and recorded on an Agilent 8453 spectrophotometer using ChemStation software (Agilent Technologies, Inc., Santa Clara, Calif.).
(§1) The compounds were analyzed at 298° K according to the Method for Obtaining Ultraviolet-Visible Light Spectrum (30 μM acetonitrile) to obtain the maximum absorbance wavelength (λabs,max), Method for Obtaining Fluorescence Emission Spectrum (30 μM acetonitrile) to obtain the maximum emission wavelength (λem,max) and Method for Determining Quantum Yield (ΦF) (30 μM acetonitrile) at the concentration, in the solvent, and with the counter ion indicated in Table 1. The compounds included hydrogen at each R group that is not otherwise specified.
(§2) Compounds 6, 7, 9, 11-14 and 21 were analyzed according to: the Method for Obtaining Ultraviolet-Visible Light Spectrum to obtain the maximum absorbance wavelength (λabs,max), the Method for Obtaining Fluorescence Emission Spectrum to obtain the maximum emission wavelength (λem,max), and the Method for Determining Quantum Yield (ΦF) in the solvent and with the counter ion indicated in Table 3.

[4] = Fluorescence emission spectrum (maximum emission wavelength)
Description: Method for Obtaining a Fluorescence Emission Spectrum
Fluorescence emission spectra are obtained and recorded on a QM-4-CW Spectrofluorometer using FeliX32 software (Photon Technology International, Inc., Birmingham, N.J.).
as §1, §2

[5] = Fluorescence quantum yield, integrating sphere
Description: Method for Determining Quantum Yield
Quantum yield is determined using an integrating sphere attached to a QM-4-CW Spectrofluorometer using FeliX32 software (Photon Technology International).
as §1, §2

In the case of CCN(CC)c1ccc(-c2c3cccc[n+]3cn2-c2ccc(OC)cc2)cc1.[Cl-] [Compound 6, 1-(4-(diethylamino)phenyl)-2-(4-methoxyphenyl)-2H-imidazo[1,5-a]pyridin-4-ium chloride], the “λem,max (fluorescence emission)” value ([1]; 30 μM in acetonitrile in the absence of trifluoroacetic acid) is reported as 565 nm, the “λem,max (fluorescence emission)” value ([1]; 30 μM in acetonitrile in the presence of trifluoroacetic acid (60.0 mM TFA)) is reported as 400 nm and 405 nm and the “λem,max of the emission that decreases as pH decreases” value [2] is reported as 580 nm. The “λem,max of the emission that increases as pH decreases” value [2] was 400 nm, the “λabs, max Abs” value ([3]; H2O (pH not given), 30 μM) was 350 nm and the “λabs, max Abs” value ([3]; H2O pH = 2.5, 30 μM) was 350 nm. The “λabs, max Abs” value ([3]; MeCN + 13.8 uL TFA, 30 μM) was 350 nm, the “λabs, max Abs” value ([3]; MeCN, 30 μM) was 350 nm and the “λem, max Em” value ([4]; H2O (pH not given), 30 μM) was 580 nm. For the same molecule, the “λem, max Em” value ([4]; H2O pH = 2.5, 30 μM) was 400 nm, the “λem, max Em” value ([4]; MeCN + 13.8 uL TFA, 30 μM) was 405 nm and the “λem, max Em” value ([4]; MeCN, 30 μM) was 565 nm. The “[…]F (quantum yield)” value ([5]; H2O (pH not given), 30 μM) was 16%, the “[…]F (quantum yield)” value ([5]; H2O pH = 2.5, 30 μM) was 31% and the “[…]F (quantum yield)” value ([5]; MeCN + 13.8 uL TFA, 30 μM) was 49%. For the same molecule, the “[…]F (quantum yield)” value ([5]; MeCN, 30 μM) was 59%.
